Source: US9238656B2, “Imidazo[4,5-b]pyridine derivatives as ALK and JAK modulators for the treatment of proliferative disorders” (priority 2012, dated 2016)
Where a name gives a salt, the structure may show the parent alone. Read-outs that look alike come from different tables or passages of the source.

Experiments:
[1] = target: baculovirus-expressed ALK (Homo sapiens, UniProt Q9UM73); test: ALK kinase inhibition, TRF/ELISA; type: biochemical; conditions: read-out: ALK Potency
Outline: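 Plates were coated with GST-PLC-γ substrate (10 μg/mL) and the reaction was started with 30 ng/mL ALK, running 15 min at 37° C. Phosphotyrosine was detected by time-resolved fluorescence with Eu-labeled PT66 antibody. IC50s came from variable-slope sigmoidal fits of percent inhibition versus log concentration.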

[2] = target: baculovirus-expressed JAK2 kinase (Homo sapiens, UniProt O60674); test: biochemical
Outline: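 Time-resolved fluorescence kinase assay using 15 ng/mL baculovirus-expressed JAK2 on Neutravidin-captured biotinylated 15-mer peptide substrate, reaction 20 min at room temperature. IC50 from percent inhibition versus log concentration, sigmoidal variable-slope fit.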

[3] = 0.2 μM ATP, read-out: JAK2 Potency

baculovirus-expressed ALK, sequence (Q9UM73 19-1620): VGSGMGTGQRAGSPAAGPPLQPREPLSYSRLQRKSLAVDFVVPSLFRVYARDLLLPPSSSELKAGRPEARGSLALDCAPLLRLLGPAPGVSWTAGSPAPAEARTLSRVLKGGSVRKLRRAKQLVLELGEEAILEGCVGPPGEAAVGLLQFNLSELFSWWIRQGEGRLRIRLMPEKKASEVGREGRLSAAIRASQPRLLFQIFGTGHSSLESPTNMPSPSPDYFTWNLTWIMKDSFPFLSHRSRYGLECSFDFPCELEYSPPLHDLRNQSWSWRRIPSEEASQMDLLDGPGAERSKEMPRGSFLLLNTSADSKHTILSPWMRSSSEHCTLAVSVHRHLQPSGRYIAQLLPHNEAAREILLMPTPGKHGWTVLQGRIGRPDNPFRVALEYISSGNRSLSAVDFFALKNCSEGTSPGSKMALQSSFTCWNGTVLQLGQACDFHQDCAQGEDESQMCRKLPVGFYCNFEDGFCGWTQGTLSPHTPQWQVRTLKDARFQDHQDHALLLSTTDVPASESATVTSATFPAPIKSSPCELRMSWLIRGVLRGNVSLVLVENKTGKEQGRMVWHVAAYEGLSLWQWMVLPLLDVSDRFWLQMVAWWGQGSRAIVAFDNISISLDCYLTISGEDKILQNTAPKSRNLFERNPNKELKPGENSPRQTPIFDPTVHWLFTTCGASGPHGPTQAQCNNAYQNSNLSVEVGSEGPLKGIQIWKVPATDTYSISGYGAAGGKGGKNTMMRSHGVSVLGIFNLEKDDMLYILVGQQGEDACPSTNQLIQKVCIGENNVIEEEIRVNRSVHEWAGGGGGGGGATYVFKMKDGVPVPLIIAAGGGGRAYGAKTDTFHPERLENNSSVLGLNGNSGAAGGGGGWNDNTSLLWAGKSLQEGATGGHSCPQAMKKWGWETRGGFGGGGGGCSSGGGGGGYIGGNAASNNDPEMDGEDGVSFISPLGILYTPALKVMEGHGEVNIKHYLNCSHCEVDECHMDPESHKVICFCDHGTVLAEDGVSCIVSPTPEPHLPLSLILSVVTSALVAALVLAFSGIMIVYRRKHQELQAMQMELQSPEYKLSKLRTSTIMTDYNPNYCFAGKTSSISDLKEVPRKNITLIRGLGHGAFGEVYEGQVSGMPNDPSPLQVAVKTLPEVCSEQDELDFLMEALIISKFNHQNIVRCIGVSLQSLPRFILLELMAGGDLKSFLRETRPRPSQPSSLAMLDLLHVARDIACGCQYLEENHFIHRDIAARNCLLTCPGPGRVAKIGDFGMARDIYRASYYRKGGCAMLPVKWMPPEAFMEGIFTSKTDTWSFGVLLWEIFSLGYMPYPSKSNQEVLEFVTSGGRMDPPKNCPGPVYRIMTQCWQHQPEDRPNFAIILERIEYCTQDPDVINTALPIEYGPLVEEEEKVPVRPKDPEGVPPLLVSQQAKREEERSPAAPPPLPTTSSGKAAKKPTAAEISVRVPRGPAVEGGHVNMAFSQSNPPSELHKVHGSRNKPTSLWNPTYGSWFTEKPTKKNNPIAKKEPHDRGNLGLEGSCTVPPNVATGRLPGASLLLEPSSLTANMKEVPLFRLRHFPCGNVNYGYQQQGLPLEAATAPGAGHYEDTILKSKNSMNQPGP
baculovirus-expressed JAK2 kinase, sequence (O60674 whole entry): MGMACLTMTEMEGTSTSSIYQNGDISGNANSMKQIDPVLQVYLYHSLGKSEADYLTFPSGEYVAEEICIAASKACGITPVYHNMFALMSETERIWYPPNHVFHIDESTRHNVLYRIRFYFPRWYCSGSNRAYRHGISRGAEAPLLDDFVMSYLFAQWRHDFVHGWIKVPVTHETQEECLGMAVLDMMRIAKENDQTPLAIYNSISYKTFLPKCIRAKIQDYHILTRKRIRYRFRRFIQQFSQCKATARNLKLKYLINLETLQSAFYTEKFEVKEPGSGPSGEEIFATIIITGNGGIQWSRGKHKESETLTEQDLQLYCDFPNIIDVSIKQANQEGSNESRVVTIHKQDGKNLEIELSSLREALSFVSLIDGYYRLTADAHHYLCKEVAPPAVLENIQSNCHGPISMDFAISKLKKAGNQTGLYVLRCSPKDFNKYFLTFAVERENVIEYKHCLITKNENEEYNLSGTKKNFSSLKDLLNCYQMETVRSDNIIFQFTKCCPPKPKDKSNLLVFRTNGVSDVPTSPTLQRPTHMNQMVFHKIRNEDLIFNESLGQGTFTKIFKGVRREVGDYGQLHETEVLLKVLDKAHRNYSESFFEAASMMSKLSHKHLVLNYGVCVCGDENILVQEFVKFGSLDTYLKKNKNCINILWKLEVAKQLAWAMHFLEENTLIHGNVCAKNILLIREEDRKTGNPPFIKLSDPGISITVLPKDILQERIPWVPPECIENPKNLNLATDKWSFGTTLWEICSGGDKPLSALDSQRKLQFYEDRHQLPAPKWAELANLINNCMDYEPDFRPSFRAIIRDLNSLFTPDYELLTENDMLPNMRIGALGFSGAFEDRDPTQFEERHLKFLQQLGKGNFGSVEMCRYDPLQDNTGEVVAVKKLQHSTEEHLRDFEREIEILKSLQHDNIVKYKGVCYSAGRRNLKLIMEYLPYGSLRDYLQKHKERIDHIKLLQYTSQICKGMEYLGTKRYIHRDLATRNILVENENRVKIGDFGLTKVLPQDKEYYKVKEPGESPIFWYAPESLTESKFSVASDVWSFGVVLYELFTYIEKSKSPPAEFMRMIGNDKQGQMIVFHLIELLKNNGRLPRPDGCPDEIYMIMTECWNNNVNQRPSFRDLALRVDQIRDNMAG

Compound | IC50 [1] [nM] | IC50 [2, 3] [nM] | IC50 ([2]; JAK2 Potency) [nM]
NC(=O)[C@@H]1[C@H](Nc2c(Cl)cnc3[nH]c(-c4ccc(N5CCOCC5)cc4)nc23)[C@H]2CC[C@@H]1O2 [Compound CCIV, (1S,2R,3S,4R)-3-(6-chloro-2-(4-morpholinophenyl)-3H-imidazo[4,5-b]pyridin-7-ylamino)-7-oxabicyclo[2.2.1]heptane-2-carboxamide] | 1000 to 10000 | < 100 | –
COc1cc(N2CCOCC2)ccc1-c1nc2c(N[C@H]3[C@@H](C(N)=O)[C@@H]4CC[C@H]3O4)c(Cl)cnc2[nH]1 [Compound CCVI, (1S,2R,3S,4R)-3-(6-chloro-2-(2-methoxy-4-morpholinophenyl)-3H-imidazo[4,5-b]pyridin-7-ylamino)-7-oxabicyclo[2.2.1]heptane-2-carboxamide] | 100 to 1000 | 1000 to 10000 | –
COc1cc(N2CCOCC2)ccc1-c1nc2c(N3C[C@@H]4C[C@H]3CN4C[C@H](C)O)c(Cl)cnc2[nH]1 [Compound XXXIX, (S)-1-[(1S,4S)-5-[6-Chloro-2-(methoxy-4-morpholin-4-yl-phenyl)-3H-imidazo[4,5-b]pyridine-7-yl]-2,5-diaza-bicyclo[2.2.1]hept-2-yl]-propan-2-ol] | > 10000 | > 10000 | –
NC(=O)[C@@H]1[C@H](Nc2c(Cl)cnc3[nH]c(C4CCCNC4)nc23)[C@H]2C=C[C@@H]1C2 (single isomer, unassigned) [XIII] | > 10000 | > 10000 | –
NC(=O)[C@@H]1[C@H](Nc2c(Cl)cnc3[nH]c(-c4ccc(OCC(=O)O)cc4)nc23)[C@H]2C=C[C@@H]1C2 [Compound CCXLVI, 2-(4-(7-((1R,2R,3S,4S)-3-carbamoylbicyclo[2.2.1]hept-5-en-2-ylamino)-6-chloro-3H-imidazo[4,5-b]pyridin-2-yl)phenoxy)acetic acid] | 100 to 1000 | < 100 | –
CN(C)c1cccc(-c2nc3c(N[C@H]4[C@@H](C(N)=O)[C@@H]5C=C[C@H]4C5)c(Cl)cnc3[nH]2)c1 [Compound XII, (1S,2S,3R,4R)-3-[6-Chloro-2-(3-dimethylamino-phenyl)-3H-imidazo[4,5-b]pyridin-7-ylamino]-bicyclo[2.2.1]hept-5-ene-2-carboxylic acid amide] | 100 to 1000 | < 100 | –
CC12CCC(Nc3c(Cl)cnc4[nH]c(-c5ccc(N6CCOCC6)cc5)nc34)(CC1O)C2(C)C (centres unmarked) [Compound CCI, 4-(6-chloro-2-(4-morpholinophenyl)-3H-imidazo[4,5-b]pyridin-7-ylamino)-1,7,7-trimethylbicyclo[2.2.1]heptan-2-ol] | > 10000 | < 100 | –
NC(=O)[C@@H]1[C@H](Nc2c(Cl)cnc3[nH]c(Nc4ccccc4)nc23)[C@H]2C=C[C@@H]1C2 [Compound LXVII, (1S,2S,3R,4R)-3-(6-Chloro-2-phenylamino-3H-imidazo[4,5-b]pyridine-7-ylamino)-bicyclo[2.2.1]hept-5-ene-2-carboxylic acid amide] | 100 to 1000 | < 100 | –
COc1cc(N2CCOCC2)ccc1-c1nc2c(N3C[C@@H]4C[C@H]3CN4)c(Cl)cnc2[nH]1 [Compound XXXVII, 6-Chloro-7-(1S,4S)-2,5-diaza-bicyclo[2.2.1]hept-2-yl-2-(2-methoxy-4-morpholin-4-yl-phenyl)-3H-imidazo[4,5-b]pyridine hydrochloride] | > 10000 | – | 1000 to 10000
NC(=O)[C@@H]1[C@H](Nc2c(Cl)cnc3[nH]c(-c4cccc(F)c4)nc23)[C@H]2C=C[C@@H]1C2 [Compound CXXVIII] | 100 to 1000 | < 100 | –

Second part, led by results:

IC50 [1] [nM] | IC50 [2, 3] [nM] | Compound | IC50 ([2]; JAK2 Potency) [nM]
< 100 | < 100 | COc1cc(C2CCN(C[C@H](C)O)CC2)ccc1-c1nc2c(N[C@H]3[C@@H](C(N)=O)[C@@H]4C=C[C@H]3C4)c(Cl)cnc2[nH]1 [Compound XLV, (1S,2S,3R,4R)-3-(6-Chloro-2-{4-[1-((S)-2-hydroxypropyl)-piperidin-4-yl]-2-methoxyphenyl}-3H-imidazo[4,5-b]pyridine-7-ylamino)-bicyclo[2.2.1]hept-5-ene-2-carboxylic acid amide] | –
< 100 | < 100 | CN1CCC(Oc2cccc(-c3nc4c(N[C@H]5[C@@H](C(N)=O)[C@@H]6C=C[C@H]5C6)c(Cl)cnc4[nH]3)c2)CC1 [Compound CCXLVIII, (1S,2S,3R,4R)-3-(6-chloro-2-(3-(1-methylpiperidin-4-yloxy)phenyl)-3H-imidazo[4,5-b]pyridin-7-ylamino)bicyclo[2.2.1]hept-5-ene-2-carboxamide] | –
< 100 | < 100 | CN1CCN(C(=O)COc2ccc(-c3nc4c(N[C@H]5[C@@H](C(N)=O)[C@@H]6C=C[C@H]5C6)c(Cl)cnc4[nH]3)cc2)CC1 [Compound CCXLIV, (1S,2S,3R,4R)-3-(6-chloro-2-(4-(2-(4-methylpiperazin-1-yl)-2-oxoethoxy)phenyl)-3H-imidazo[4,5-b]pyridin-7-ylamino)bicyclo[2.2.1]hept-5-ene-2-carboxamide] | –
< 100 | < 100 | NC(=O)[C@@H]1[C@H](Nc2c(Cl)cnc3[nH]c(-c4ccc(C(=O)N5CCNCC5)cc4)nc23)[C@H]2C=C[C@@H]1C2 [Compound CCXX, (1S,2S,3R,4R)-3-(6-chloro-2-(4-(piperazine-1-carbonyl)phenyl)-3H-imidazo[4,5-b]pyridin-7-ylamino)bicyclo[2.2.1]hept-5-ene-2-carboxamide] | –
100 to 1000 | < 100 | NC(=O)COc1ccc(-c2nc3c(N[C@H]4[C@@H](C(N)=O)[C@@H]5C=C[C@H]4C5)c(Cl)cnc3[nH]2)cc1 [Compound CCXL, (1S,2S,3R,4R)-3-(2-(4-(2-amino-2-oxoethoxy)phenyl)-6-chloro-3H-imidazo[4,5-b]pyridin-7-ylamino)bicyclo[2.2.1]hept-5-ene-2-carboxamide] | –
100 to 1000 | < 100 | N#Cc1cccc(-c2nc3c(N[C@H]4[C@@H](C(N)=O)[C@@H]5C=C[C@H]4C5)c(Cl)cnc3[nH]2)c1 [Compound CXLIV, (1S,2S,3R,4R)-3-[6-Chloro-2-(3-cyano-phenyl)-3H-imidazo[4,5-b]pyridin-7-ylamino]-bicyclo[2.2.1]hept-5-ene-2-carboxylic acid amide] | –
< 100 | < 100 | CN(C)C(=O)[C@@H]1[C@H](Nc2c(Cl)cnc3[nH]c(-c4sc(N5CC[C@@H](O)C5)nc4Cl)nc23)[C@H]2C=C[C@@H]1C2 [Compound CLXVIII, (1S,2S,3R,4R)-3-{6-Chloro-2-[4-chloro-2-((R)-3-hydroxy-pyrrolidin-1-yl)-thiazol-5-yl]-3H-imidazo[4,5-b]pyridin-7-ylamino}-bicyclo[2.2.1]hept-5-ene-2-carboxylic acid dimethylamide] | –
< 100 | 100 to 1000 | COc1cc(CN2CCOCC2)ccc1-c1nc2c(N[C@H]3[C@@H](CO)[C@@H]4C=C[C@H]3C4)c(Cl)cnc2[nH]1 [Compound LII, {(diexo)-3-[6-Chloro-2-(2-methoxy-4-morpholin-4-ylmethylphenyl)-3H-imidazo[4,5-b]pyridine-7-ylamino]-bicyclo[2.2.1]hept-5-en-2-yl}-methanol] | –
< 100 | > 10000 | CC(C)NC(=O)[C@@H]1[C@H](Nc2c(Cl)cnc3[nH]c(-c4sc(N5CCOCC5)nc4Cl)nc23)[C@H]2C=C[C@@H]1C2 [Compound CLXIII, (1S,2S,3R,4R)-3-[6-Chloro-2-(4-chloro-2-morpholin-4-yl-thiazol-5-yl)-3H-imidazo[4,5-b]pyridin-7-ylamino]-bicyclo[2.2.1]hept-5-ene-2-carboxylic acid isopropylamide] | –
